Key:
Assay type in all cases: cell-based
VCaP cells = assay: VCaP growth inhibition assay; conditions: 30 pM R1881, 9 days, CTG
Procedure, shortened: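 VCaP cells in phenol red-free DMEM/5% CSS, pre-incubated 72 h, then stimulated with R1881 (final 30 pM) and treated with 1:5 serial dilutions (final 100 nM to 10 fM) for 9 days at 37 °C. Viability by CellTiter-Glo luminescence; IC50 from 4-parameter logistic fit of RLU vs concentration.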

HEK-293 cells = assay: HEK-293 growth inhibition assay; conditions: 3 days, CTG
Experimental: Cluster plates are returned to the incubator (37*C/5% CO2) for 24 hours prior to treatment. […] Cluster plates are returned to the incubator for 3 days.
After the 3-day treatment period, 100 uL media was removed from each well by aspiration and 100 uL room temperature CTG reagent (Promega Cat #G7573) is added back to each well. The cluster plates are placed on a shaker and incubated at room temperature for 20 minutes. Following this shaking/incubation, cluster plates are read on a luminometer (BMG ClarioStar). IC50 values are obtained by graphing the RLU data vs. compound concentration with nonlinear regression 4-parameter logistic curves (GraphPad Prism).

AR / CBP ternary complex = assay: Ternary complex formation assay (sandwich ELISA, AR capture / CBP detection) in VCaP cell lysates; conditions: 1.5 hours treatment, sandwich ELISA (AR capture, CBP or p300 detection)
Procedure, shortened: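 VCaP cells (50K/well, 5% charcoal-stripped FBS, ≥3 days) treated with bifunctional compound for 1.5 h, then lysed 30 min at 4 °C. AR captured on anti-AR (AR 441) plates; bound CBP or p300 detected by rabbit mAb plus HRP secondary. QuantaRed chemifluorescence read at ex 570/em 585, immediately and at 5 and 15 min.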

Row | SMILES | IC50 (VCaP cells) | EC50 (AR / CBP ternary complex) | IC50 (HEK-293 cells)
1 | CC(=O)N1CCc2c(c(-c3cccc4cc(-c5ccc(C(=O)NCC6CCN(c7ncc(C(=O)NC8C(C)(C)C(Oc9ccc(C#N)c(Cl)c9)C8(C)C)cn7)CC6)nc5)ncc34)nn2C2CCOCC2)C1 (stereo not shown) [Compound 110, 2-[4-[[[5-[8-(5-acetyl-1-tetrahydropyran-4-yl-6,7-dihydro-4H-pyrazolo[4,3-c]pyridin-3-yl)-3-isoquinolyl]pyridine-2-carbonyl]amino]methyl]-1-piperidyl]-N-[3-(3-chloro-4-cyano-phenoxy)-2,2,4,4-tetramethyl-cyclobutyl]pyrimidine-5-carboxamide] | ≤ 0.1 nM |  | > 10000 nM
2 | CC(=O)N1CCc2c(c(N3CCCc4cc(-c5cnn(C)c5)c(C(F)F)cc43)nn2C2CCN(C3CC4(CC(Oc5ncc(C(=O)NC6C(C)(C)C(Oc7ccc(C#N)c(Cl)c7)C6(C)C)cn5)C4)C3)CC2)C1 (stereo not shown) [Compound 385, 2-[6-[4-[5-acetyl-3-[7-(difluoromethyl)-6-(1-methylpyrazol-4-yl)-3,4-dihydro-2H-quinolin-1-yl]-6,7-dihydro-4H-pyrazolo[4,3-c]pyridin-1-yl]-1-piperidyl]spiro[3.3]heptan-2-yl]oxy-N-[3-(3-chloro-4-cyano-phenoxy)-2,2,4,4-tetramethyl-cyclobutyl]pyrimidine-5-carboxamide] | 0.1 to 1 nM | < 1 nM | 
3 | C[C@@H]1CC(=O)Nc2cccc(-c3ccc4c(c3)c(-c3cnn(C)c3)nn4CCN3CCN(c4ncc(C(=O)NC5C(C)(C)C(Oc6ccc(C#N)c(Cl)c6)C5(C)C)cn4)CC3)c2N1 (stereo partly drawn) [Compound 56, N-[3-(3-chloro-4-cyano-phenoxy)-2,2,4,4-tetramethyl-cyclobutyl]-2-[4-[2-[5-[(4R)-4-methyl-2-oxo-1,3,4,5-tetrahydro-1,5-benzodiazepin-6-yl]-3-(1-methylpyrazol-4-yl)indazol-1-yl]ethyl]piperazin-1-yl]pyrimidine-5-carboxamide] | 0.1 to 1 nM | < 1 nM | 
4 | CC(=O)N1CCc2c(c(N3CCCc4cc(-c5cnn(C)c5)c(C(F)F)cc43)nn2C2CC3(C2)CN(CC2CC4(C2)CN(c2ncc(C(=O)NC5C(C)(C)C(Oc6ccc(C#N)c(Cl)c6)C5(C)C)cn2)C4)C3)C1 (stereo not shown) [Compound 216, 2-[6-[[6-[5-acetyl-3-[7-(difluoromethyl)-6-(1-methylpyrazol-4-yl)-3,4-dihydro-2H-quinolin-1-yl]-6,7-dihydro-4H-pyrazolo[4,3-c]pyridin-1-yl]-2-azaspiro[3.3]heptan-2-yl]methyl]-2-azaspiro[3.3]heptan-2-yl]-N-[3-(3-chloro-4-cyano-phenoxy)-2,2,4,4-tetramethyl-cyclobutyl]pyrimidine-5-carboxamide] | ≤ 0.1 nM | < 1 nM | 
5 | COc1cc(OC2C(C)(C)C(NC(=O)c3ccc(N4CC5(CCC(C6CCC(n7nc(N8CCCc9cc(-c%10cnn(C)c%10)c(C(F)F)cc98)c8c7CCN(C(C)=O)C8)CC6)CC5)C4)cc3)C2(C)C)ccc1C#N (stereo not shown) [Compound 380, 4-[7-[4-[5-acetyl-3-[7-(difluoromethyl)-6-(1-methylpyrazol-4-yl)-3,4-dihydro-2H-quinolin-1-yl]-6,7-dihydro-4Hpyrazolo[4,3-c]pyridin-1-yl]cyclohexyl]-2-azaspiro[3.5]nonan-2-yl]-N-[3-(4-cyano-3-methoxy-phenoxy)-2,2,4,4-tetramethyl-cyclobutyl]benzamide] | 1 to 100 nM | 1 to 10 nM | 
6 | Cn1c(=O)sc2ccc(N3CCCc4cc(-c5ccc(CCC6CCN(c7ncc(C(=O)NC8C(C)(C)C(Oc9ccc(C#N)c(Cl)c9)C8(C)C)cn7)CC6)nc5)c(C(F)F)cc43)cc21 (stereo not shown) [Compound 236, N-[3-(3-chloro-4-cyano-phenoxy)-2,2,4,4-tetramethyl-cyclobutyl]-2-[4-[2-[5-[7-(difluoromethyl)-1-(3-methyl-2-oxo-1,3-benzothiazol-5-yl)-3,4-dihydro-2H-quinolin-6-yl]-2-pyridyl]ethyl]-1-piperidyl]pyrimidine-5-carboxamide] | > 100 nM | > 100 nM | 
7 | COc1cc(OC2C(C)(C)C(NC(=O)c3ccc(N4CC[C@@H](N5CCC(n6nc(N7CCCc8cc(-c9cnn(C)c9)c(C(F)F)cc87)c7c6CCN(C(C)=O)C7)CC5)C4)cc3)C2(C)C)ccc1C#N (stereo partly drawn) [Compound 337, 4-[(3R)-3-[4-[5-acetyl-3-[7-(difluoromethyl)-6-(1-methylpyrazol-4-yl)-3,4-dihydro-2H-quinolin-1-yl]-6,7-dihydro-4H-pyrazolo[4,3-c]pyridin-1-yl]-1-piperidyl]pyrrolidin-1-yl]-N-[3-(4-cyano-3-methoxy-phenoxy)-2,2,4,4-tetramethyl-cyclobutyl]benzamide] | 0.1 to 1 nM | < 1 nM | 
8 | CC(=O)N1CCc2c(c(N3CCCc4cc(-c5cnn(C)c5)c(C(F)F)cc43)nn2C2CCN(CCc3ncc(C(=O)NC4C(C)(C)C(Oc5ccc(C#N)c(Cl)c5)C4(C)C)cn3)CC2)C1 (stereo not shown) [Compound 92, 2-[2-[4-[5-acetyl-3-[7-(difluoromethyl)-6-(1-methylpyrazol-4-yl)-3,4-dihydro-2H-quinolin-1-yl]-6,7-dihydro-4H-pyrazolo[4,3-c]pyridin-1-yl]-1-piperidyl]ethyl]-N-[3-(3-chloro-4-cyano-phenoxy)-2,2,4,4-tetramethyl-cyclobutyl]pyrimidine-5-carboxamide] | > 100 nM | > 100 nM | 
9 | CC(=O)N1CCc2c(c(N3CCCc4cc(-c5cnn(C)c5)c(C(F)F)cc43)nn2C2CCN(C3CCN(c4ncc(C(=O)NC5C(C)(C)C(Oc6ccc(C#N)c(Cl)c6)C5(C)C)cn4)CC3)C2)C1 (stereo not shown) [Compound 12, 2-[4-[3-[5-acetyl-3-[7-(difluoromethyl)-6-(1-methylpyrazol-4-yl)-3,4-dihydro-2H-quinolin-1-yl]-6,7-dihydro-4H-pyrazolo[4,3-c]pyridin-1-yl]pyrrolidin-1-yl]-1-piperidyl]-N-[3-(3-chloro-4-cyano-phenoxy)-2,2,4,4-tetramethyl-cyclobutyl]pyrimidine-5-carboxamide] | 1 to 100 nM | 1 to 10 nM | 
10 | C[C@@H]1CC(=O)Nc2cccc(-c3ccc4c(c3)c(-c3cnn(C)c3)nn4CCN(C)c3ncc(C(=O)NC4C(C)(C)C(Oc5ccc(C#N)c(Cl)c5)C4(C)C)cn3)c2N1 (stereo partly drawn) [Compound 48, N-[3-(3-chloro-4-cyano-phenoxy)-2,2,4,4-tetramethyl-cyclobutyl]-2-[methyl-[2-[5-[(4R)-4-methyl-2-oxo-1,3,4,5-tetrahydro-1,5-benzodiazepin-6-yl]-3-(1-methylpyrazol-4-yl)indazol-1-yl]ethyl]amino]pyrimidine-5-carboxamide] | 1 to 100 nM | > 100 nM | 

Now from value to compound, other results behind:

Row | IC50 (VCaP cells) | EC50 (AR / CBP ternary complex) | SMILES | IC50 (HEK-293 cells)
11 | 0.1 to 1 nM | < 1 nM | CC(=O)N1CCc2c(c(N3CCCc4cc(-c5cnn(C)c5)c(C)cc43)nn2C2CCN(CC3CCN(c4ncc(C(=O)NC5C(C)(C)C(Oc6ccc(C#N)c(Cl)c6)C5(C)C)cn4)CC3(C)C)CC2)C1 (stereo not shown) [Compound 446, 2-[4-[[4-[5-acetyl-3-[7-methyl-6-(1-methylpyrazol-4-yl)-3,4-dihydro-2H-quinolin-1-yl]-6,7-dihydro-4H-pyrazolo[4,3-c]pyridin-1-yl]-1-piperidyl]methyl]-3,3-dimethyl-1-piperidyl]-N-[3-(3-chloro-4-cyano-phenoxy)-2,2,4,4-tetramethyl-cyclobutyl]pyrimidine-5-carboxamide] | 
12 | 0.1 to 1 nM | < 1 nM | CC(=O)N1CCc2c(c(N3CCCc4cc(C#N)c(C(F)F)cc43)nn2C2CCN(CC3C(C)CN(c4ncc(C(=O)NC5C(C)(C)C(Oc6ccc(C#N)c(Cl)c6)C5(C)C)cn4)CC3C)CC2)C1 (stereo not shown) [Compound 458, 2-[4-[[4-[5-acetyl-3-[6-cyano-7-(difluoromethyl)-3,4-dihydro-2H-quinolin-1-yl]-6,7-dihydro-4H-pyrazolo[4,3-c]pyridin-1-yl]-1-piperidyl]methyl]-3,5-dimethyl-1-piperidyl]-N-[3-(3-chloro-4-cyano-phenoxy)-2,2,4,4-tetramethyl-cyclobutyl]pyrimidine-5-carboxamide] | 
13 | 1 to 100 nM | 1 to 10 nM | COc1cc(OC2C(C)(C)C(NC(=O)c3ccc(N4CCC[C@H](N5CCC(n6nc(N7CCCc8cc(-c9cnn(C)c9)c(C(F)F)cc87)c7c6CCN(C(C)=O)C7)CC5)C4)cc3)C2(C)C)ccc1C#N (stereo partly drawn) [Compound 399, 4-[(3S)-3-[4-[5-acetyl-3-[7-(difluoromethyl)-6-(1-methylpyrazol-4-yl)-3,4-dihydro-2H-quinolin-1-yl]-6,7-dihydro-4H-pyrazolo[4,3-c]pyridin-1-yl]-1-piperidyl]-1-piperidyl]-N-[3-(4-cyano-3-methoxy-phenoxy)-2,2,4,4-tetramethyl-cyclobutyl]benzamide] | 
14 | ≤ 0.1 nM | < 1 nM | COc1cc(OC2C(C)(C)C(NC(=O)c3ccc(N4CC5(CCC(N6CCC(n7nc(N8CCCc9cc(-c%10ccn(C)n%10)c(C(F)F)cc98)c8c7CCN(C(C)=O)C8)CC6)CC5)C4)cc3)C2(C)C)ccc1C#N (stereo not shown) [Compound 432, 4-[7-[4-[5-acetyl-3-[7-(difluoromethyl)-6-(1-methylpyrazol-3-yl)-3,4-dihydro-2H-quinolin-1-yl]-6,7-dihydro-4H-pyrazolo[4,3-c]pyridin-1-yl]-1-piperidyl]-2-azaspiro[3.5]nonan-2-yl]-N-[3-(4-cyano-3-methoxy-phenoxy)-2,2,4,4-tetramethyl-cyclobutyl]benzamide] | 

Source: US20250129070A1, “BIFUNCTIONAL ANDROGEN RECEPTOR COMPOUNDS” (priority 2023, published 2025)
